# System: tissue PDH activity
# Experiment: Ex vivo PDH activation assay (liver and epididymal adipose tissue mitochondrial fractions after oral dosing)
# Type: in vivo, Sprague-Dawley rats
# Conditions: 3 mg/kg, rat
# Procedure: The action of test compound on tissue PDH activity was evaluated. NADH production was detected via p-iodonitrotetrazolium violet (INT)-coupled system to measure PDH activity.
# Normal male Sprague-Dawley rats were randomly allocated m to the vehicle group and the test compound groups. The vehicle (0.5% aqueous methylcellulose solution, 5 mL/kg) or the test compound was orally administered to the rats. At 5 or 20 hr after administration, the rats were anesthetized with an intraperitoneal injection of sodium pentobarbital (60 mg/kg), and liver slices and epididymal adipose tissues were collected.
# (§1) To the liver slices were rapidly added 9 volumes of ice-cold homogenization buffer (0.25 mol/L sucrose, 5 mmol/L tris(hydroxymethyl)aminomethane hydrochloride (pH 7.5), 2 mmol/L EDTA), and the mixtures were homogenized using a Polytron homogenizer. The homogenates were centrifuged at 600×g, 4° C. for 10 min to obtain the supernatant. The supernatants (1 mL) were centrifuged at 16,000×g, 4° C. for 10 min to collect the precipitates. The precipitates were washed by resuspension in the homogenization buffer (1 mL) and centrifuged in the same manner. The precipitates were frozen with liquid nitrogen and stored at −80° C. as the liver mitochondrial fraction.
# as §1, with “adipose tissues” for “liver slices”, “3” for “9”, “of an” for “of”, “buffer,” for “buffer (0.25 mol/L sucrose, 5 mmol/L tris(hydroxymethyl)aminomethane hydrochloride (pH 7.5), 2 mmol/L EDTA),”, “supernatants” for “supernatants (1 mL)”, “adipose tissue” for “liver”
# The mitochondrial fractions were thawed and suspended with the sample buffer (0.25 mol/L sucrose, 20 mmol/L tris(hydroxymethyl)aminomethane hydrochloride (pH 7.5), 50 mmol/L potassium chloride, and 1 mL/L 4-(1,1,3,3-tetramethylbutyl)phenyl-polyethylene glycol (Triton X-100)). Active PDH activity (PDHa activity) and total PDH activity (PDHt activity) were measured to evaluate the PDH activity. For the measurement of the PDHt activity, equal amounts of the mitochondrial suspension and the activation buffer (0.25 mol/L sucrose, 20 mmol/L tris(hydroxymethyl)aminomethane hydrochloride (pH 7.5), 50 mmol/L potassium chloride, 1 mL/L Triton X-100, 4 mmol/L calcium chloride, 40 mmol/L magnesium chloride, 10 mmol/L sodium dichloroacetate) were mixed, and the mixtures were incubated at 37° C. for 10 min. Forty microliters of the mitochondrial suspensions diluted with a sample buffer were added to a 96-well microplate for activity measurement and blank measurement. Then 180 μL of the reaction mixture (0.056 mmol/L potassium phosphate buffer (pH 7.5), 5.6 mmol/L DL-carnitine, 2.8 mmol/L NAD, 0.22 mmol/L thiamin pyrophosphate, 0.11 mmol/L Coenzyme A, 1.1 mL/L Triton X-100, 1.1 mmol/L magnesium chloride, 1.1 g/L bovine serum albumin, 0.67 mmol/L INT, 7.2 μmol/L phenazine methosulfate, 28 mmol/L sodium oxamate) was added to each well, and then 20 μL of 50 mmol/L sodium pyruvate for activity measurement or water for blank measurement were added. The mixtures were incubated at room temperature under shading. The absorbances at 500-750 nm, which were attributable to reduction of INT, the final electron acceptor, were measured using a microplate reader over time and the changes in the absorbance were calculated. The PDH activity was calculated by subtraction of the change in absorbance of the blank well from that of the activity measurement well. The percentage of the PDHa activity to the PDHt activity was calculated and taken as an index of the PDH activation.
smiles,measurement,setting,value
"C[C@H](O)COc1cc(-c2cnn(C(C)(C)C(N)=O)c2)c2c(c1)[C@@](O)(C(F)(F)F)c1ccccc1-2 [compound (2), 2-(4-{(9R)-9-hydroxy-2-[(2S)-2-hydroxypropoxy]-9-(trifluoromethyl)-9H-fluoren-4-yl}-1H-pyrazol-1-yl)-2-methylpropanamide]",PDHa activity (% PDHt activity),"adipose tissue, 5 hr after oral administration",72 ± 4 % PDHt activity
same,PDHa activity (% PDHt activity),"adipose tissue, 20 hr after oral administration",44 ± 6 % PDHt activity
same,PDHa activity (% PDHt activity),"liver, 5 hr after oral administration",67 ± 11 % PDHt activity
same,PDHa activity (% PDHt activity),"liver, 20 hr after oral administration",41 ± 11 % PDHt activity

# Reference: US20150018403A1, “FLUORENE-AMIDE COMPOUNDS AND PHARMACEUTICAL USE THEREOF” (JAPAN TOBACCO INC., priority 2013, published 2015)
